# Where no end group is shown, it is not given here. [ ]: non-standard residue; d: D form. lysine‑palmitate = lysine-palmitate bound at the N-terminal end; pY = N[C@@H](Cc1ccc(OP(=O)(O)O)cc1)C(=O)O
# How the values were obtained:
# diabetic mice (db/db) [1] = assay: Disruption of the blood-retinal barrier, albumin extravasation; assay type: in vivo; details: eye drops 50 μg in 5 μL/eye twice a day, 15 days
# Experimental: 8-week old diabetic mice (db/db) received the miS1 peptide in the form of eye drops (5 μL drops in each eye; 10 mg/mL; twice a day for 15 days; n=7 mice). Diabetic mice treated with vehicle (n=7) and non-diabetic mice (db/+) (n=7) were used as controls. The weight and glycemia (colorimetric assay) were controlled throughout the study period. The animals were euthanized on day 15 by cervical dislocation. The disruption of the BRB was evaluated by means of determining albumin permeability.
# The paraffin sections were deparaffinized in xylene and rehydrated in a gradual series of ethanol. The sections were fixed in acidic methanol (−20° C.) for 1 minute and washed with 0.01 M PBS solution at pH 7.4. The sections were incubated in a blocking solution (2.5% dry, non-fat milk) for 30 minutes at room temperature. The sections were incubated with a goat anti-human serum albumin primary antibody (1:500, Abcam) overnight at 4° C. After one washing in PBS, the sections were incubated with an Alexa 594 donkey anti-goat secondary antibody (1:200, Molecular Probes) for 1 hour at room temperature. […] The immunofluorescence of albumin was analyzed by means of laser confocal microscopy (Olympus FluoView™ FV1000 confocal microscope, Hamburg, Germany).
# diabetic mice (db/db) [2] = assay: Retinal IL-1β mRNA expression by RT-PCR; assay type: in vivo; details: eye drops 15 days, retina mRNA RT-PCR
# Experimental: (§1) 8-week old diabetic mice (db/db) received the miS1 peptide in the form of eye drops (5 μL drops in each eye; 10 mg/mL; twice a day for 15 days; n=7 mice). Diabetic mice treated with the non-functional peptide Mut (n=7), treated with vehicle and non-diabetic mice (db/+) were used as controls. The eye drops were directly administered on the upper surface of the cornea of each eye using a micropipette. The weight and glycemia (colorimetric assay) were controlled throughout the study period. On day 15, the drop with the miS1 peptide or vehicle was administered about two hours before autopsy. The animals were euthanized by cervical dislocation and the enucleated eyes were immediately frozen and dorsoventral sections of […] were cut for analyzing retinal morphology and other immunohistochemical analyses.
# The expression of IL-1β, TNF-α and IL-6 was evaluated. The total RNA was extracted with RNeasy Mini Kit with DNAse digestion (QIAGEN, distributed by IZASA, Barcelona, Spain) according to manufacturer's instructions. The RNA (1 μg) was used for reverse transcription with random hexanucleotide primers and Applied Biosystems reagents (Applied Biosystems, Madrid, Spain) in a reaction volume of 20 μl. […] The ΔΔCt method was used for obtaining the relative quantification (RQ).
# STAT3 [3] = assay: STAT3 activation in cytokine-stimulated VSMC; assay type: cell-based, mouse; details: IFNγ and IL-6 stimulation, immunofluorescence images
# [4] = system: vascular smooth muscle cells (VSMC); assay: Cytokine-induced CCL2 production in VSMC (ELISA); assay type: cell-based, mouse; details: pre-incubation with peptide, IFNγ and IL-6
# Experimental: (§2) RAW264.7 macrophages and vascular smooth muscle cells (VSMC) cultured in a medium with 10% fetal bovine serum were used. The cells were synchronized (24 hours without serum), pre-incubated for 90 minutes with different peptide concentrations (miS1 or the control thereof, 50-150 μg/mL) and stimulated with cytokines (IFNγ […]). STAT activation was analyzed by means of Western blot for phosphorylated STAT1/STAT3 isoforms. JAK/STAT pathway-dependent chemokine (CCL2) expression was determined by means of ELISA. Cell viability was analyzed by MTT colorimetric assay and macrophage migration was analyzed by chemotaxis assay.
# diabetic mice (db/db) [5] = assay: Retinal apoptosis by TUNEL, topical eye drops; assay type: in vivo
# Experimental: as §1
# Glial activation was evaluated by means of GFAP (Glial fibrillar acidic protein) immunofluorescence following the methodology described in other studies (Bogdanov et al. PLoS One. 2014; 9:e97302). The fixed sections were blocked (1% BSA and 10% goat serum in PBS, 2 hours at RT) and incubated with anti-GFAP antibodies (dilution 1:500, 16 hours at 4° C.) followed by a secondary antibody (Alexa 488-conjugated goat anti-rabbit, dilution 1:200). […] The images of diabetic and control samples were taken with identical parameters and the topographic distribution of the GFAP labelling was analyzed in a scale of 0 to 5 (Anderson et al. Clin Ophthalmol 2008; 2(4):801-16). […] Apoptosis was determined by means of TUNEL (Terminal Transferase dUTP Nick-EndLabeling; fluorescence kit) immunohistochemistry using the previously described method (Bogdanov et al. PLoS One. 2014; 9:e97302) and subsequent quantification under a fluorescence microscope. […] The apoptotic cells were identified using green fluorescence [[…] goat-anti-rabbit (Invitrogen) (dilution 1:200 prepared in PBS)]. An excitation wavelength in the interval of 450-565 nm (e.g., 488 nm) was used for evaluation using fluorescence microscopy and the interval of 515-565 nm (green) was used for detection. […]
# STAT3 [6] = assay: STAT3 activation in cytokine-stimulated macrophages (Western blot); assay type: cell-based, murine; details: pre-incubation 50-150 ug/mL (Mut 150 ug/mL), IFNγ and IL-6 stimulation
# Experimental: as §2
# [7] = eye drops 50 μg in 5 μL/eye twice a day, 15 days
substance,measurement,setting,value
"miS1: SEQ ID NO 1 DTHFRTFRSHSDYRRI, kinase inhibitory region of murine SOCS1, bound to lysine-palmitate at the N-terminal end, tyrosine phosphorylated ({lysine‑palmitate}-DTHFRTFRSHSD[pY]RRI)",albumin extravasation (vascular permeability),diabetic mice (db/db) [1],prevented
same,IL-1β increase induced by diabetes,diabetic mice (db/db) [2],prevented the increase
same,STAT3 activation,STAT3 [3],prevented
same,reduction of cytokine-induced CCL2 production,[4],30-40%
same,apoptosis rate (TUNEL) vs diabetic mice treated with vehicle,diabetic mice (db/db) [5]; [7],significantly lower apoptosis rate
same,percentage of apoptotic cells vs non-diabetic mice,diabetic mice (db/db) [5]; [7],No differences
same,reduction of apoptosis,"diabetic mice (db/db) [5]; eye drops 15 days, compared with groups that received Mut peptide or vehicle",about 80%
same,STAT3 activation (phosphorylation),STAT3 [6],reduced STAT1 and STAT3 activation in a dose-dependent manner
